Measured values from PubChem BioAssay (NCI).
Values joined by “and” are separate entries in the source; they are usually repeats but may differ in a detail not shown here. Equal entries are not always repeated.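 Assay format: 96-well plates, 48-hour exposure. GI50 = concentration required for 50% inhibition of growth. The concentration for full growth arrest is given as TGI.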

Assays:
Test in all cases: NCI tumour cell line growth inhibition, 48 h
[1] = test system: A549 NSCLC
[2] = test system: HOP-18 NSCLC
[3] = test system: SK-MEL-5 melanoma
[4] = test system: NCI-H226 lung
[5] = test system: MDA-MB-231 breast
[6] = test system: SK-MEL-28 melanoma
[7] = test system: SNB-75 CNS
[8] = test system: LOX IMVI melanoma
[9] = test system: SNB-78 CNS
[10] = test system: KM12 colon
[11] = test system: SNB-19 CNS
[12] = test system: SN12C renal
[13] = test system: HOP-62 NSCLC
[14] = test system: TK-10 renal
[15] = test system: UO-31 renal
[16] = test system: SN12K1 renal
[17] = test system: P388 leukemia
[18] = test system: K-562 leukemia
[19] = test system: SK-OV-3 ovarian
[20] = test system: UACC-62 melanoma
[21] = test system: 786-0 renal
[22] = test system: NCI/ADR-RES ovarian
[23] = test system: CAKI-1 renal
[24] = test system: DU-145 prostate
[25] = test system: SK-MEL-2 melanoma
[26] = test system: HCC-2998 colon
[27] = test system: OVCAR-5 ovarian
[28] = test system: XF 498 CNS
[29] = test system: OVCAR-8 ovarian
[30] = test system: OVCAR-4 ovarian
[31] = test system: PC-3 prostate
[32] = test system: P388/ADR leukemia
[33] = test system: HOP-92 NSCLC
[34] = test system: HCT-116 colon
[35] = test system: BT-549 breast
[36] = test system: T-47D breast
[37] = test system: SR leukemia
[38] = test system: UACC-257 melanoma
[39] = test system: DMS 273 small cell lung
[40] = test system: NCI-H23 lung
[41] = test system: NCI-H522 lung
[42] = test system: OVCAR-3 ovarian
[43] = test system: MOLT-4 leukemia
[44] = test system: SF-295 CNS
[45] = test system: MDA-N
[46] = test system: MALME-3M melanoma
[47] = test system: RPMI-8226 leukemia
[48] = test system: HT29 colon
[49] = test system: SF-539 CNS
[50] = test system: LXFL 529 NSCLC
[51] = test system: ACHN renal
[52] = test system: IGROV1 ovarian
[53] = test system: KM20L2 colon
[54] = test system: HL-60(TB) leukemia

## CCOC(=O)C(CC(C)C)NC(=O)C(Cc1ccc(N(CCCl)CCCl)cc1)NC(C)=O (configuration not stated)
[1]
  TGI: > 100 µM and 77.5 µM
[2]
  TGI: 33.7 µM
[3]
  GI50: 10.6 µM
  TGI: 23.5 µM and 10.7 µM
[4]
  GI50: 12.2 µM
  TGI: 28.3 µM and 41.1 µM
[5]
  TGI: 23.2 µM
[6]
  GI50: 14.6 µM
  TGI: 31.2 µM and 19.3 µM
[7]
  GI50: 8.51 µM
  TGI: 21.7 µM and 24.9 µM
[8]
  GI50: 3.34 µM
  TGI: 15.1 µM and 12.5 µM
[9]
  TGI: 16.6 µM and 17.8 µM
[10]
  GI50: 17.8 µM
  TGI: 37.5 µM and 44.7 µM
[11]
  GI50: 19.7 µM
  TGI: 81.8 µM and 42.7 µM
[12]
  GI50: 4.59 µM
  TGI: 17.2 µM and 14.6 µM
[13]
  GI50: 6.09 µM
  TGI: 23.1 µM and 14.2 µM
[14]
  TGI: 30.2 µM and 32.2 µM
[15]
  GI50: 13.2 µM
  TGI: 73 µM and 20.4 µM
[16]
  TGI: 10.4 µM
[17]
  TGI: 10.6 µM
[18]
  GI50: 11.6 µM
  TGI: 49.7 µM and 54.6 µM
[19]
  GI50: 21.7 µM
  TGI: 58.6 µM and 35.5 µM
[20]
  GI50: 2.86 µM
  TGI: 12.7 µM and 7.29 µM
[21]
  GI50: 4.11 µM
  TGI: 16.6 µM and 8.47 µM
[22]
  TGI: 68.5 µM
[23]
  GI50: 3.71 µM
  TGI: 16.2 µM and 6.73 µM
[24]
  TGI: 21.9 µM
[25]
  GI50: 1.81 µM
  TGI: 4.74 µM and 5.49 µM
[26]
  GI50: 17.2 µM
  TGI: 31.5 µM and 30.6 µM
[27]
  TGI: 32 µM and 33.5 µM
[28]
  TGI: 1.14 µM
[29]
  GI50: 12.1 µM
  TGI: 30.8 µM and 55.2 µM
[30]
  GI50: 16.1 µM
  TGI: 29.5 µM and 27.1 µM
[31]
  TGI: 57.8 µM
[32]
  TGI: 10.5 µM
[33]
  GI50: 1.25 µM
  TGI: 3.75 µM and 1.4 µM
[34]
  GI50: 12.7 µM
  TGI: 29.3 µM and 39.8 µM
[35]
  TGI: 32.3 µM
[36]
  TGI: 11.2 µM
[37]
  GI50: 1.04 µM and 0.895 µM
  TGI: 10.8 µM and 7 µM
[38]
  TGI: 14 µM and 13.1 µM
[39]
  TGI: 20.1 µM and 24.9 µM
[40]
  GI50: 5.17 µM
  TGI: 16.7 µM and 16.5 µM
[41]
  GI50: 2.52 µM
  TGI: 8.68 µM and 3.87 µM
[42]
  GI50: 15.1 µM
  TGI: 29.2 µM and 13.7 µM
[43]
  GI50: 2.04 µM and 0.307 µM
  TGI: 15.5 µM and 3.31 µM
[44]
  GI50: 7.89 µM
  TGI: 26.8 µM and 26.3 µM
[45]
  TGI: 6.91 µM
[46]
  GI50: 4.01 µM
  TGI: 22.8 µM and 7.77 µM
[47]
  GI50: 3.19 µM
  TGI: 14.8 µM and 15 µM
[48]
  GI50: 14.9 µM
  TGI: 36.7 µM and 31.8 µM
[49]
  TGI: 10.6 µM and 9.63 µM
[50]
  TGI: 26.5 µM
[51]
  GI50: 3.7 µM
  TGI: 16 µM and 9.63 µM
[52]
  TGI: 33.2 µM and 29.3 µM
[53]
  GI50: 13.8 µM
  TGI: 29.7 µM and 46.9 µM
[54]
  GI50: 2.07 µM
  TGI: 28.7 µM and 3.32 µM
